Results published in patent US20120149662A1, “Heterocyclic Compounds as Janus Kinase Inhibitors” (BioCryst Pharmaceuticals, Inc., priority 2009, published 2012).

Target: JAK3 (JH1domain-catalytic) kinase and other members of the JAK family
Experiment: Test A: IC50 determination against JAK family kinases (Fabian et al. 2005 / Karaman et al. 2008 assay)
Assay type: binding
Conditions: 11 point dose response curves in triplicate; JAK family member not given; read-out: Activity (IC50) for JAK Family of Enzymes
Method: The ability of a compound of the invention to bind to JAK3 may be determined using pharmacological models which are well known to the art, or using Test A described below.
Inhibition constants (IC50s) were determined against JAK3 (JH1domain-catalytic) kinase and other members of the JAK family. Assays were performed as described in Fabian et al. (2005) Nature Biotechnology, vol. 23, p. 329 and in Karaman et al. (2008) Nature Biotechnology, vol. 26, p. 127 Inhibition constants were determined using 11 point dose response curves which were performed in triplicate. Table 1 shown below lists compounds of the invention and their respective IC50 values.

IC50 [µM] | Structure (SMILES)
< 5 | N#CC[C@H](CC1CCCC1)n1cc(-c2cnnc3[nH]ccc23)cn1 [Compound 59d, (S)-3-(4-(7H-pyrrolo[2,3-c]pyridazin-4-yl)-1H-pyrazol-1-yl)-4-cyclopentylbutanenitrile]
> 10 | NC(=O)c1c[nH]c2nnnc(O)c12 [Compound 70c, 4-hydroxy-7H-pyrrolo[2,3-d][1,2,3]triazine-5-carboxamide]
< 5 | N#CCC(C1CCCCC1)n1cc(-c2cnnc3[nH]ccc23)cn1 (stereo not drawn) [Compound 47d, 3-(4-(7H-pyrrolo[2,3-c]pyridazin-4-yl)-1H-pyrazol-1-yl)-3-cyclohexylpropane nitrile]
< 10 | N#CCC1(n2cc(-c3cnnc4[nH]ccc34)cn2)COC1 [Compound 46c, 2-(3-(4-(7H-pyrrolo[2,3-c]pyridazin-4-yl)-1H-pyrazol-1-yl)oxetan-3-yl)acetonitrile]
< 5 | N#CCC(C1CCC1)n1cc(-c2cnnc3[nH]ccc23)cn1 (stereo not drawn) [Compound 54e, 3-(4-(7H-pyrrolo[2,3-c]pyridazin-4-yl)-1H-pyrazol-1-yl)-3-cyclobutylpropane nitrile]
< 5 | N#CCC1(n2cc(-c3cnnc4[nH]ccc34)cn2)CCC1 [Compound 55d, 2-(1-(4-(7H-pyrrolo[2,3-c]pyridazin-4-yl)-1H-pyrazol-1-yl)cyclobutyl)acetonitrile]
> 10 | c1ccc(-c2cnnc3[nH]ccc23)cc1 [Compound 50a, 4-phenyl-7H-pyrrolo[2,3-c]pyridazine]
< 5 | N#CCC1(n2cc(-c3cnnc4[nH]ccc34)cn2)CCCC1 [Compound 48d, 2-(1-(4-(7H-pyrrolo[2,3-c]pyridazin-4-yl)-1H-pyrazol-1-yl)cyclopentyl)acetonitrile]
< 5 | N#CCC[C@H](C1CCCC1)n1cc(-c2cnnc3[nH]ccc23)cn1 [Compound 62b, (R)-4-(4-(7H-pyrrolo[2,3-c]pyridazin-4-yl)-1H-pyrazol-1-yl)-4-cyclopentyl butanenitrile]
< 5 | N#CC[C@H](C1CCCC1)n1cc(-c2cnnc3[nH]ccc23)cn1 [Compound 43g, (R)-3-(4-(7H-pyrrolo[2,3-c]pyridazin-4-yl)-1H-pyrazol-1-yl)-3-cyclopentylpropanenitrile]
< 5 | N#CCC1(n2cc(-c3cnnc4[nH]ccc34)cn2)CCCCC1 [Compound 56d, 2-(1-(4-(7H-pyrrolo[2,3-c]pyridazin-4-yl)-1H-pyrazol-1-yl)cyclohexyl)acetonitrile]
< 5 | N#CC[C@]1(n2cc(-c3cnnc4[nH]ccc34)cn2)C[C@@H](C#N)C1 [Compound 60f, (Z)-3-(4-(7H-pyrrolo[2,3-c]pyridazin-4-yl)-1H-pyrazol-1-yl)-3-(cyanomethyl)cyclobutanecarbonitrile]
< 5 | N#CCC(CC1CCCC1)n1cc(-c2cnnc3[nH]ccc23)cn1 (stereo not drawn) [Compound 51e, 3-(4-(7H-pyrrolo[2,3-c]pyridazin-4-yl)-1H-pyrazol-1-yl)-4-cyclopentylbutane nitrile]
> 10 | c1cc2c(-c3cn[nH]c3)cnnc2[nH]1 [Compound 31m, 4-(1H-pyrazol-4-yl)-7H-pyrrolo[2,3-c]pyridazine]
> 10 | CCOC(C)n1cc(-c2cnnc3[nH]ccc23)cn1 (stereo not drawn) [Compound 32c, 4-(1-(1-ethoxyethyl)-1H-pyrazol-4-yl)-7H-pyrrolo[2,3-c]pyridazine]
> 10 | CC(C)(C)C(=O)OCn1ccc2c(-c3cn[nH]c3)cnnc21 [Compound 43a, (4-(1H-pyrazol-4-yl)-7H-pyrrolo[2,3-c]pyridazin-7-yl)methyl pivalate]

Further lines, the compound ahead of its results:

Structure (SMILES) | IC50 [µM]
N#CC[C@]1(n2cc(-c3cnnc4[nH]ccc34)cn2)C[C@H](C#N)C1 [Compound 60g, (E)-3-(4-(7H-pyrrolo[2,3-c]pyridazin-4-yl)-1H-pyrazol-1-yl)-3-(cyanomethyl)cyclobutanecarbonitrile] | < 5
CC(C)(C)OC(=O)N1CC(CC#N)(n2cc(-c3cnnc4[nH]ccc34)cn2)C1 [Compound 45d, tert-butyl 3-(4-(7H-pyrrolo[2,3-c]pyridazin-4-yl)-1H-pyrazol-1-yl)-3-(cyanomethyl)azetidine-1-carboxylate] | > 10
N#CC[C@H](c1ccccc1)n1cc(-c2cnnc3[nH]ccc23)cn1 [Compound 67d, (R)-3-(4-(7H-pyrrolo[2,3-c]pyridazin-4-yl)-1H-pyrazol-1-yl)-3-phenylpropane nitrile] | < 5
N#CC[C@@H](C1CCCC1)n1cc(-c2cnnc3[nH]ccc23)cn1 [Compound 44d, (S)-3-(4-(7H-pyrrolo[2,3-c]pyridazin-4-yl)-1H-pyrazol-1-yl)-3-cyclopentyl propanenitrile] | < 5
N#CC[C@H](C1CCCCC1)n1cc(-c2cnnc3[nH]ccc23)cn1 [Compound 58d, (R)-3-(4-(7H-pyrrolo[2,3-c]pyridazin-4-yl)-1H-pyrazol-1-yl)-3-cyclohexylpropanenitrile] | < 5
N#CCC(CC1CCCCC1)n1cc(-c2cnnc3[nH]ccc23)cn1 (stereo not drawn) [Compound 52e, 3-(4-(7H-pyrrolo[2,3-c]pyridazin-4-yl)-1H-pyrazol-1-yl)-4-cyclohexylbutane nitrile] | < 5
N#CCC(C1CC1)n1cc(-c2cnnc3[nH]ccc23)cn1 (stereo not drawn) [Compound 53d, 3-(4-(7H-pyrrolo[2,3-c]pyridazin-4-yl)-1H-pyrazol-1-yl)-3-cyclopropylpropane nitrile] | < 5
CCS(=O)(=O)N1CC(CC#N)(n2cc(-c3cnnc4[nH]ccc34)cn2)C1 [Compound 49c, 2-(3-(4-(7H-pyrrolo[2,3-c]pyridazin-4-yl)-1H-pyrazol-1-yl)-1-(ethylsulfonyl)azetidin-3-yl)acetonitrile] | < 5
N#CCC(C1CCCC1)n1cc(-c2cnnc3[nH]ccc23)cn1 (stereo not drawn) [Compound 34j, 3-(4-(7H-pyrrolo[2,3-c]pyridazin-4-yl)-1H-pyrazol-1-yl)-3-cyclopentylpropanenitrile] | < 5
N#CCC(CC1CC1)n1cc(-c2cnnc3[nH]ccc23)cn1 (stereo not drawn) [Compound 57e, 3-(4-(7H-pyrrolo[2,3-c]pyridazin-4-yl)-1H-pyrazol-1-yl)-4-cyclopropylbutane nitrile] | < 5
N#CC[C@H](c1cccc(O)c1)n1cc(-c2cnnc3[nH]ccc23)cn1 [Compound 68f, (R)-3-(4-(7H-pyrrolo[2,3-c]pyridazin-4-yl)-1H-pyrazol-1-yl)-3-(3-hydroxyphenyl)propanenitrile] | < 5
